Experimental data: PMC10626537, “Pharmacokinetic and pharmacodynamic studies of nicotine in rat brain: a simultaneous investigation of nicotine metabolites and the release of neurotransmitters in vivo” (Frontiers in Chemistry, 2023)
Read-outs that look alike come from different tables or passages of the source.

Assays:
[1] = Online brain microdialysis UHPLC-HRMS/MS pharmacokinetics of Nic and its main metabolites in rat NAc after single Nic injection; assay type: in vivo; set-up: AUC0–360 min: unit not given here; conditions: for Cmax / MRT / Tmax / half-life: rat, brain microdialysate (NAc), ip; for half-life: read-out: t 1/2z
Protocol: (§1) To inhibit the main Nic metabolic enzyme CYP2B in the brain, rats received intraperitoneal injections of proadifen (50 mg kg^−1·day^−1, 4 d) ([Song et al., 2012]). Control animals were pretreated with saline using the same protocol. All the rats were sacrificed by cardiac perfusion after microdialysis sampling. The brain tissues were separated and divided into four parts (cerebrum, cerebellum, diencephalon, and brainstem). The CYP2B activity in different rat brain regions was determined following the instructions of the GENMED CYP2B1 activity fluorescence quantitative detection kit (GENMED SCIENTIFICS INC. U.S.A, GMS18019.1).
(§2) The mass spectrometer was operated in positive ionization mode. […] The normalized collision energy was set at 10%.

[2] = test system: release of neurotransmitters in the NAc; assay: Microdialysis release of neurotransmitters in rat NAc after Nic exposure under regulation of Nic metabolism; assay type: in vivo; conditions: for peak concentration of DOPAC / peak concentration of HVA: after Nic stimulation (2 mg kg^-1 ip)
Protocol: as §1, §2

[3] = test system: monoamine neurotransmitters in rat striatum; conditions: rat striatum dialysate; after 3 h of Nic exposure (2 mg kg^-1 ip)
From the text: Anesthesia was induced with 3% isoflurane in an induction chamber before surgical procedures and was placed in a stereotaxic frame equipped with a rat ear and bite bar. Rat was maintained under anesthesia with 1%–2% isoflurane during operation procedures. And the cranium above the ventral striatum (coordinates relative to bregma: anterior/posterior (AP), +1.2 mm; medial/lateral (ML), −2.4 mm; dorsal/ventral (DV), −6.0 mm) or NAc (coordinates relative to bregma: anterior/posterior (AP), +1.7 mm; medial/lateral (ML), −1.5 mm; dorsal/ventral (DV), −6.5 mm) was exposed to implant the probe guide-cannula (CMA/12), two screws were implanted into the skull to serve as an anchor and dental cement was used as an adhesive to fixed the probe guide-cannula. To avoid the interference of neurotransmitter changes due to physical stimulation of pain receptors during intraperitoneal injection of Nic, Nic was injected with the aid of an administration catheter (Instech, BTPU-040, 6.35 × 10.16 mm, America), which was implanted in the abdomen, the other end of the catheter was passed under the skin and sent to the back and sealed with a plug (Instech, PNP3M-F22R, America). The rats were housed individually and allowed to recover from surgery for at least 24 h.
For in vivo microdialysis sampling, the probe (CMA/12 Elite, membrane parameters: polyarylethersulfone material; 2 mm length; φ 0.5 mm; 20 kDa cut-off) was inserted into the brain through the cannula. After implantation, the probe was perfused with Ringer’s solution by the syringe pump (CMA/402, piston propulsion speed: 2.4 μm·min^-1–1.2 mm min^-1; velocity range: 0.1 μL·min^-1–20 μL min^-1; precision: −1.5%-1.5%) at fixed flow rates (1.5 μL min^-1), and the dialysates were analyzed under the optimized UHPLC-HRMS/MS condition directly. Intraperitoneal administration of 2 mg kg^-1 Nic was performed until stable levels of neurotransmitters were obtained, which was defined as the mean value of neurotransmitter concentrations in six consecutive samples varied by no more than 10%.
UHPLC-HRMS/MS system was performed on Dionex Ultimate 3000 UHPLC equipped with a Q-Exactive mass spectrometer and electrospray ionization (ESI) interface (Thermo Fisher Scientific, Germany). Chromatographic separation was achieved by the pentafluorophenyl phase column (Discovery® HS F5-3 column, 2.1 × 150 mm, 3 μm) with linear binary gradient elution, at a flow rate of 0.5 mL min^-1. Eluent A was 10 mM ammonium acetate with FA (0.1%, v/v) dissolved in water, and eluent B was acetonitrile with 0.1% FA (v/v). […] From 3 to 6 min, a linear gradient was applied from 45% to 75% B and then return linearly to the initial condition at 9 min and the column was allowed to equilibrate for 1 min.
The mass spectrometer was operated in positive ionization mode. The optimized mass spectrometer parameters were as follows: a resolution of 35000; automatic gain control (AGC) target was 2.0 e^5; maximum injection time (IT) was 100 m; 3.5 kV for spray voltage; ion transfer tube temperature, 350°C; S-Lens RF level, 60%. The isolation window of the precursor ions was done using a quadrupole with an isolation window of m/z 1. The normalized collision energy was set at 10%. Analytes were determined by a parallel reaction monitoring (PRM) method by acquiring two transitions for each compound. The most specific transition was selected for the quantitative purpose. All data were gathered and analyzed using Xcalibur 2.2 software (Thermo Fisher Scientific, Germany). […]

CYP2B1 = molecular target: T1, CYP2B1 (Rattus norvegicus, UniProt P00176); assay: CYP2B1 activity in rat brain tissue after proadifen pretreatment (GENMED CYP2B1 activity fluorescence quantitative detection kit); assay type: in vivo; conditions: 4 days
T1 construct: The brain tissues were separated and divided into four parts (cerebrum, cerebellum, diencephalon, and brainstem); from tissue; host or cells: brain tissue (cerebrum, cerebellum, diencephalon, brainstem) of male Sprague Dawley rats
T1 sequence (P00176 1-491): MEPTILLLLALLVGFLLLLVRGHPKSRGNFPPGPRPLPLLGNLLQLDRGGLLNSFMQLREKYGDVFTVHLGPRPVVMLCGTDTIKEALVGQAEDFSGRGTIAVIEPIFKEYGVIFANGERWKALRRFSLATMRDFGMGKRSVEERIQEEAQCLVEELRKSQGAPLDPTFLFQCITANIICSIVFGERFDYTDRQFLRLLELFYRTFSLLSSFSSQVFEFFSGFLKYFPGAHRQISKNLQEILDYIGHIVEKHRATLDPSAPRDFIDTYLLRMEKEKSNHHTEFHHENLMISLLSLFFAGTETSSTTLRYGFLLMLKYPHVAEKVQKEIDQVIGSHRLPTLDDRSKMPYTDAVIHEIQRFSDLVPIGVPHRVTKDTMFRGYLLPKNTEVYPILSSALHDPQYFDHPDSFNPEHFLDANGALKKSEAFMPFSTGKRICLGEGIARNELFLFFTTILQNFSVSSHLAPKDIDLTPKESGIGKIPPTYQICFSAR
Protocol: as §1

[4] = rat NAc, Nic 2 mg kg^-1 ip, Prodifine (proadifen) pretreated
[5] = rat NAc, Nic 2 mg kg^-1 ip, saline-pretreated
[6] = 2 mg/kg, rat NAc, Nic 2 mg kg^-1 ip, Prodifine (proadifen) pretreated
[7] = 2 mg/kg, rat NAc, Nic 2 mg kg^-1 ip, saline-pretreated
[8] = after Nic exposure, proadifen pretreatment group
[9] = Nic 2 mg kg^-1 ip, proadifen vs saline pretreatment

SMILES	CL/F [1, 4]	CL/F [1, 5]	Cmax [1, 6]	MRT [1, 6]	Tmax [1, 6]	half-life [1, 6]	Cmax [1, 7]	MRT [1, 7]	Tmax [1, 7]	half-life [1, 7]	other results
CN1CCC[C@H]1c1cccnc1 [Nic, (−) nicotine]	14.0 mL/min	25.0 mL/min	1220 ng/mL	1.89 h	30 min	76.7 min	968 ng/mL	1.43 h	30 min	129 min	time by which Nic was almost completely cleared from the rat brain ([1]; Nic 2 mg kg^-1 ip): ≤ 360 min; brain C max of Nic in proadifen group relative to saline group ([1]; rat brain, Nic 2 mg kg^-1 ip, proadifen-pretreated vs saline): 1.26 times; Cmax ([1]; 2 mg kg^-1, rat NAc, Nic 2 mg kg^-1 ip, Prodifine (proadifen) pretreated): 1220 ng/mL; C max of 5-HIAA [2, 8]: ~240 % of baseline; C max of 5-HT [2, 8]: ~390 % of baseline; peak level of Ach relative to baseline ([2]; after Nic injection): almost doubled; peak concentration of DOPAC ([2]; proadifen pretreated group): ~340 % of the baseline; peak concentration of HVA ([2]; proadifen pretreated group): ~330 % of the baseline; peak concentration of DOPAC ([2]; saline group): ~290 % of the baseline; peak concentration of HVA ([2]; saline group): ~270 % of the baseline; average level of 5-HIAA [3]: 234.4 µg/L; average level of 5-HT [3]: 45.9 µg/L; average level of DA [3]: 25.1 µg/L; average level of DOPAC [3]: 99.2 µg/L; average level of HVA [3]: 169.8 µg/L
CN1C(=O)CC[C@H]1c1cccnc1 [Cot, (−) cotinine]	7.0 mL/min	9.0 mL/min	20.3 ng/mL	3.12 h	120 min	131 min	16.7 ng/mL	3.11 h	160 min	104 min	–
C[N@+]1([O-])CCC[C@H]1c1cccnc1 [NNO, (1′S, 2′S)-nicotine-1′-oxide]	3.2 mL/min	5.0 mL/min	5.2 ng/mL	1.57 h	40 min	53.7 min	15.1 ng/mL	2.39 h	30 min	48.1 min	AUC0–360 min ([1]; rat NAc dialysate, Nic 2 mg kg^-1 ip single injection, Prodifine (proadifen 50 mg kg^-1 d^-1 ip, 4 days) pretreated, two-compartmental model): 0.6; decrease of C max (level) of Nic metabolite after CYP2B1 inhibition compared with control rats ([1]; rat brain, Nic 2 mg kg^-1 ip, proadifen-pretreated vs saline control): 65.6%
CCCC(C(=O)OCCN(CC)CC)(c1ccccc1)c1ccccc1 [proadifen]	–	–	–	–	–	–	–	–	–	–	decrease of whole brain CYP2B1 activity on average (CYP2B1; proadifen 50 mg kg^-1 d^-1 ip, vs saline-pretreated rats): 36.9%; effect on brain CYP2B1 activity (CYP2B1; proadifen 50 mg·kg^−1·d^−1 ip): significant inhibition; effect of proadifen inhibition on Nic-induced peak level of Ach ([2]; Nic 2 mg kg^-1 ip): did not further increased it; average level of GABA in proadifen group relative to saline group [2, 9]: 2.7 times; average level of serotonin under inhibition of nicotine metabolism relative to control [2, 9]: 1.2 times
